ChEMBL document CHEMBL3045494, “Inhibitory effect and structureactivity relationship of some Biginelli-type pyrimidines against HSV-1” (Med Chem Res, 2013)
Calls of active or inactive are those of the source.

Key:
Vero = test: (§1) Cytotoxicity against Chlorocebus aethiops (African green monkey) Vero cells after 72 hr by XTT assay; type: cell-based; details: chlorocebus sabaeus, vero, 72 h
[1] = as §1; type: cell-based; details: chlorocebus sabaeus, Vero cells
[2] = Selectivity index, ratio of CC25 for African green monkey Vero cells to IC25 for Herpes simplex virus 1 KOS; type: toxicity, cell-based; details: read-out: Selectivity Index
Human alphaherpesvirus 1 = test: Antiviral activity against Human herpesvirus 1 strain KOS infected Vero cells after 72 hr by plaque reduction assay; type: functional, organism-based
[3] = Therapeutic index, ratio of CC50 for African green monkey Vero cells to IC50 for Herpes simplex virus 1 KOS; type: cell-based; details: read-out: Ratio CC50/IC50
[4] = Human alphaherpesvirus 1, KOS, Vero, 72 h
[5] = Human alphaherpesvirus 1, KOS, Vero, 72 h, read-out: IC50

SMILES: CCOC(=O)C1=C(C)N=C(S)NC1c1cccs1 (stereo not given)
- CC25 (Vero): 87.3 µM
- CC50 at 72 h [1]: 100 µM
- selectivity ratio [2]: 6.2
- IC25 (Human alphaherpesvirus 1; [4]): 14 µM
- IC50 (Human alphaherpesvirus 1; [5]): > 100 µM

SMILES: COC(=O)C1=C(C)NC(=O)NC1c1ccc(F)cc1 (stereo not given)
- CC25 (Vero): Non-toxic
- CC50 (Vero): Non-toxic
- selectivity ratio [2]: 1
- selectivity ratio [3]: 1
- IC25 (Human alphaherpesvirus 1): inactive
- IC50 (Human alphaherpesvirus 1; vero): Not Active

SMILES: CC1=C(C(=O)Nc2cccc(Cl)c2)C(c2cccs2)NC(=O)N1 (stereo not given)
- CC25 (Vero): 87.9 µM
- CC50 at 72 h [1]: > 100 µM
- selectivity ratio [2]: < 1
- selectivity ratio [3]: < 1
- IC25 (Human alphaherpesvirus 1): inactive
- IC50 (Human alphaherpesvirus 1; vero): Not Active

SMILES: CC1=C(C(=O)Nc2ccccc2Cl)C(c2ccc(C)cc2)NC(=O)N1 (stereo not given)
- CC25 (Vero): > 100 µM
- CC50 at 72 h [1]: > 100 µM
- selectivity ratio [2]: > 1250
- selectivity ratio [3]: > 10
- IC25 (Human alphaherpesvirus 1; [4]): 0.08 µM
- IC50 (Human alphaherpesvirus 1; [5]): 10.5 µM

SMILES: CC1=C(C(=O)Nc2cccc(Cl)c2)C(c2cnc(CS)n2NCc2ccccc2)NC(=O)N1 (stereo not given)
- CC25 (Vero): 100 µM
- CC50 at 72 h [1]: > 100 µM
- selectivity ratio [2]: 1.8
- selectivity ratio [3]: > 1.4
- IC25 (Human alphaherpesvirus 1; [4]): 53.8 µM
- IC50 (Human alphaherpesvirus 1; [5]): 67 µM

SMILES: CC1=C(C(=O)Nc2ccccn2)C(c2cccs2)NC(=O)N1 (stereo not given)
- CC25 (Vero): > 100 µM
- CC50 at 72 h [1]: > 100 µM
- selectivity ratio [2]: > 1
- selectivity ratio [3]: > 1
- IC25 (Human alphaherpesvirus 1; [4]): 97.7 µM
- IC50 (Human alphaherpesvirus 1; [5]): > 100 µM

SMILES: CCOC(=O)C1=C(C)NC(=S)NC1c1ccc(Br)cc1 (stereo not given)
- CC25 (Vero): 9.3 µM
- CC50 at 72 h [1]: 38.9 µM
- selectivity ratio [2]: 0.1
- selectivity ratio [3]: 0.31
- IC25 (Human alphaherpesvirus 1; [4]): 87.3 µM
- IC50 (Human alphaherpesvirus 1; [5]): 122 µM

SMILES: CC1=C(C(=O)Nc2ccccc2Cl)C(c2ccc([N+](=O)[O-])cc2)NC(=O)N1 (stereo not given)
- CC25 (Vero): Non-toxic
- CC50 (Vero): Non-toxic
- selectivity ratio [2]: > 167
- selectivity ratio [3]: > 1.2
- IC25 (Human alphaherpesvirus 1; [4]): 0.6 µM
- IC50 (Human alphaherpesvirus 1; [5]): 81.9 µM

SMILES: CC1=C(C(=O)Nc2cccc(Cl)c2)C(c2cnc(CS)n2Nc2ccccc2)NC(=O)N1 (stereo not given)
- CC25 (Vero): 71.1 µM
- CC50 at 72 h [1]: 98.6 µM
- selectivity ratio [2]: 5.1
- selectivity ratio [3]: < 0.9
- IC25 (Human alphaherpesvirus 1; [4]): 13.7 µM
- IC50 (Human alphaherpesvirus 1; [5]): > 100 µM

SMILES: CC1=C(C(=O)Nc2ccccc2Cl)C(c2ccccc2Cl)NC(=O)N1 (stereo not given)
- CC25 (Vero): Non-toxic
- CC50 (Vero): Non-toxic
- selectivity ratio [2]: > 1000
- selectivity ratio [3]: > 1.4
- IC25 (Human alphaherpesvirus 1; [4]): 0.1 µM
- IC50 (Human alphaherpesvirus 1; [5]): 67.4 µM

SMILES: CC1=C(C(=O)Nc2ccccc2Cl)C(c2ccccc2Cl)NC(=S)N1 (stereo not given)
- CC25 (Vero): 24.5 µM
- CC50 at 72 h [1]: > 100 µM
- selectivity ratio [2]: 35
- selectivity ratio [3]: > 1
- IC25 (Human alphaherpesvirus 1; [4]): 0.7 µM
- IC50 (Human alphaherpesvirus 1; [5]): > 100 µM

SMILES: CC1=C(C(=O)Nc2ccccc2Cl)C(c2cnc(CS)n2NCc2ccccc2)NC(=O)N1 (stereo not given)
- CC25 (Vero): > 100 µM
- CC50 at 72 h [1]: > 100 µM
- selectivity ratio [2]: < 1
- selectivity ratio [3]: < 1
- IC25 (Human alphaherpesvirus 1): inactive
- IC50 (Human alphaherpesvirus 1; vero): Not Active

SMILES: CC1=C(C(=O)Nc2cccnc2)C(c2cccs2)NC(=O)N1 (stereo not given)
- CC25 (Vero): > 100 µM
- CC50 at 72 h [1]: > 100 µM
- selectivity ratio [2]: < 1
- selectivity ratio [3]: < 1
- IC25 (Human alphaherpesvirus 1): inactive
- IC50 (Human alphaherpesvirus 1; vero): Not Active

SMILES: CC1=C(C(=O)Oc2ccccc2)C(c2ccccc2)NC(=S)N1 (stereo not given)
- CC25 (Vero): Non-toxic
- CC50 (Vero): Non-toxic
- selectivity ratio [2]: > 1.1
- selectivity ratio [3]: > 1
- IC25 (Human alphaherpesvirus 1; [4]): 93.2 µM
- IC50 (Human alphaherpesvirus 1; [5]): > 100 µM

SMILES: COC(=O)C1=C(C)NC(=S)NC1c1ccc(Br)cc1 (stereo not given)
- CC25 (Vero): 69.1 µM
- CC50 at 72 h [1]: 97.2 µM
- selectivity ratio [2]: 0.8
- selectivity ratio [3]: 1.22
- IC25 (Human alphaherpesvirus 1; [4]): 67.7 µM
- IC50 (Human alphaherpesvirus 1; [5]): 82.7 µM

SMILES: COc1ccc(C2NC(=O)NC(C)=C2C(=O)Nc2ccccc2Cl)cc1 (stereo not given)
- CC25 (Vero): 17.6 µM
- CC50 at 72 h [1]: > 100 µM
- selectivity ratio [2]: 25.1
- selectivity ratio [3]: > 1.5
- IC25 (Human alphaherpesvirus 1; [4]): 0.7 µM
- IC50 (Human alphaherpesvirus 1; [5]): 63.6 µM

SMILES: CCOC(=O)C1=C(C)NC(=O)NC1c1ccccc1 (stereo not given)
- CC25 (Vero): Non-toxic
- CC50 (Vero): Non-toxic
- selectivity ratio [2]: > 1
- selectivity ratio [3]: 1
- IC25 (Human alphaherpesvirus 1; [4]): 133 µM
- IC50 (Human alphaherpesvirus 1; vero): Not Active

SMILES: COC(=O)C1=C(C)N(C)C(=O)NC1c1ccc(F)cc1 (stereo not given)
- CC25 (Vero): Non-toxic
- CC50 (Vero): Non-toxic
- selectivity ratio [2]: 1
- selectivity ratio [3]: 1
- IC25 (Human alphaherpesvirus 1): inactive
- IC50 (Human alphaherpesvirus 1; vero): Not Active

SMILES: CC1=C(C(=O)Nc2ccccc2Cl)C(c2ccc(Cl)cc2)NC(=O)N1 (stereo not given)
- CC25 (Vero): Non-toxic
- CC50 (Vero): Non-toxic
- selectivity ratio [2]: > 625
- selectivity ratio [3]: > 6.6
- IC25 (Human alphaherpesvirus 1; [4]): 0.16 µM
- IC50 (Human alphaherpesvirus 1; [5]): 13 µM

SMILES: CCOC(=O)C1=C(C)N(C)C(=O)NC1c1ccc(F)cc1 (stereo not given)
- CC25 (Vero): Non-toxic
- CC50 (Vero): Non-toxic
- selectivity ratio [2]: > 1
- selectivity ratio [3]: 1
- IC25 (Human alphaherpesvirus 1; [4]): 99 µM
- IC50 (Human alphaherpesvirus 1; vero): Not Active

SMILES: CC1=C(C(=O)Nc2ccc(Cl)cc2)C(c2cnc(CS)n2Nc2ccccc2)NC(=O)N1 (stereo not given)
- CC25 (Vero): 53.9 µM
- CC50 at 72 h [1]: > 100 µM
- selectivity ratio [2]: 1.4
- selectivity ratio [3]: > 1
- IC25 (Human alphaherpesvirus 1; [4]): 37 µM
- IC50 (Human alphaherpesvirus 1; [5]): > 100 µM

SMILES: CC1=C(C(=O)OC(C)C)C(c2cccs2)NC(S)=N1 (stereo not given)
- CC25 (Vero): 5.7 µM
- CC50 at 72 h [1]: 53.9 µM
- selectivity ratio [2]: 0.6
- selectivity ratio [3]: 1.9
- IC25 (Human alphaherpesvirus 1; [4]): 8.5 µM
- IC50 (Human alphaherpesvirus 1; [5]): 28 µM

SMILES: CC1=C(C(=O)Nc2ccccc2Cl)C(c2ccccc2Br)NC(=O)N1 (stereo not given)
- CC25 (Vero): 58.8 µM
- CC50 at 72 h [1]: > 100 µM
- selectivity ratio [2]: 4.2
- selectivity ratio [3]: > 1.6
- IC25 (Human alphaherpesvirus 1; [4]): 13.9 µM
- IC50 (Human alphaherpesvirus 1; [5]): 59.8 µM

SMILES: CC1=C(C(=O)Nc2ccccc2Cl)C(c2cnc(CS)n2Nc2ccccc2)NC(=O)N1 (stereo not given)
- CC25 (Vero): 97.7 µM
- CC50 at 72 h [1]: > 100 µM
- selectivity ratio [2]: < 1
- selectivity ratio [3]: < 1
- IC25 (Human alphaherpesvirus 1): inactive
- IC50 (Human alphaherpesvirus 1; vero): Not Active

SMILES: CCCC1NC(=O)NC(C)=C1C(=O)OCC (stereo not given)
- CC25 (Vero): Non-toxic
- CC50 (Vero): Non-toxic
- selectivity ratio [2]: 1
- selectivity ratio [3]: 1
- IC25 (Human alphaherpesvirus 1): inactive
- IC50 (Human alphaherpesvirus 1; vero): Not Active

SMILES: CCOC(=O)C1=C(C)NC(=O)NC1c1cnc(CS)n1NCc1ccccc1 (stereo not given)
- CC25 (Vero): Non-toxic
- CC50 (Vero): Non-toxic
- selectivity ratio [2]: 1
- selectivity ratio [3]: 1
- IC25 (Human alphaherpesvirus 1): inactive
- IC50 (Human alphaherpesvirus 1; vero): Not Active

SMILES: CC1=C(C(=O)Nc2ccccc2Cl)C(c2cccc(Br)c2)NC(=O)N1 (stereo not given)
- CC25 (Vero): 54.7 µM
- CC50 at 72 h [1]: > 100 µM
- selectivity ratio [2]: 34.1
- selectivity ratio [3]: > 1
- IC25 (Human alphaherpesvirus 1; [4]): 1.6 µM
- IC50 (Human alphaherpesvirus 1; [5]): 95.4 µM

SMILES: CCOC(=O)C1=C(C)NC(=O)NC1c1ccc(Br)cc1 (stereo not given)
- CC25 (Vero): 67.5 µM

SMILES: CC1=C(C(=O)Nc2ccccc2Cl)C(c2cccc([N+](=O)[O-])c2)NC(=O)N1 (stereo not given)
- CC25 (Vero): Non-toxic
- CC50 (Vero): Non-toxic
- selectivity ratio [2]: > 1000
- selectivity ratio [3]: > 2.1
- IC25 (Human alphaherpesvirus 1; [4]): 0.1 µM
- IC50 (Human alphaherpesvirus 1; [5]): 46.1 µM

SMILES: CCOC(=O)C1=C(C)NC(=O)NC1c1ccc(F)cc1 (stereo not given)
- CC25 (Vero): Non-toxic
- CC50 (Vero): Non-toxic
- selectivity ratio [2]: 1
- selectivity ratio [3]: 1
- IC25 (Human alphaherpesvirus 1): inactive
- IC50 (Human alphaherpesvirus 1; vero): Not Active

SMILES: COC(=O)C1=C(C)NC(=S)NC1c1cccs1 (stereo not given)
- CC25 (Vero): Non-toxic
- CC50 (Vero): Non-toxic
- selectivity ratio [2]: > 1.1
- selectivity ratio [3]: > 1
- IC25 (Human alphaherpesvirus 1; [4]): 92.5 µM
- IC50 (Human alphaherpesvirus 1; [5]): > 100 µM
